The values that follow come from patent US11111251B2, “Positive allosteric modulators of the muscarinic acetylcholine receptor M1” (Vanderbilt University, priority 2016, dated 2021).

SMILES strings stand for the structures. pEC50: −log10 of the molar value. Read-outs that look alike come from different tables or passages of the source.

The term pEC50 denotes −log10 of the EC50, conventionally taken in molar units. One may read the Emax as the greatest response seen or fitted, relative to the assay's reference.

This test deals with T1, human mAChR M1 (Homo sapiens, UniProt P11229).
T1 sequence (P11229 1-460): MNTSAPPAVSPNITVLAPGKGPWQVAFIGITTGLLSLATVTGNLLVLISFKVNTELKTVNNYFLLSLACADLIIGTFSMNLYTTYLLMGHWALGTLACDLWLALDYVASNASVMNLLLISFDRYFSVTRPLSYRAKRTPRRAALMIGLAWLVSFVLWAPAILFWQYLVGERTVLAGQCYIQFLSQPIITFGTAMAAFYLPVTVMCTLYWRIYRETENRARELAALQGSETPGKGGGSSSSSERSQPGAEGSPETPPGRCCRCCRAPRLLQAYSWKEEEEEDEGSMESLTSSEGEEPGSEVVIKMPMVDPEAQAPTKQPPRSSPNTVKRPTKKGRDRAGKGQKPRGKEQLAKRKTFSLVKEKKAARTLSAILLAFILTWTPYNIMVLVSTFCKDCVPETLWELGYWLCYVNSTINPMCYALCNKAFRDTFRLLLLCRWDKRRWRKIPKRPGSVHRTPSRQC
The test can be described thus: mAChR M1 cell-based functional assay: calcium mobilization, positive allosteric modulator mode (increase in EC20 acetylcholine response). To be noted: for Emax: read-out: Human M1 Emax (%). The procedure, abridged:
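PAM potency reflects the concentration-dependent increase in calcium response to an EC20 acetylcholine challenge, given 144 s into a 300 s read after compound addition at 4 s (EC80 follows at 230 s). Cells were hM1-expressing CHO-K1, loaded 50 min with Fluo-4 AM. Curves used 11 points at 1:3 dilutions and four-parameter logistic fitting.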

Where [1] appears, read: Table 2, human M1, read-out: Human M1 EC50.
[2] abbreviates: Table 1, mAChR M1 cell-based functional assay, PAM mode, species not given, read-out: EC50.

With `O=C1CC(NC(=O)c2cc(Cc3ccc(-n4cccn4)cc3)c3sccc3n2)CN1` (centres unmarked) [Compound 441, N-(5-oxopyrrolidin-3-yl)-7-[(4-pyrazol-1-ylphenyl)methyl]thieno[3,2-b]pyridine-5-carboxamide], the pEC50 under setting [1] is 5.83. The Emax (Table 2, human M1) amounted to 63.7%. For the compound `COCCNC(=O)c1cc(Cc2ccc(-c3nccs3)cc2)c2sccc2n1` [Compound 373, N-(2-methoxyethyl)-7-[(4-thiazol-2-ylphenyl)methyl]thieno[3,2-b]pyridine-5-carboxamide], the pEC50 under setting [1] is 5.85. Moreover, where the note is “Table 2, human M1”, the Emax was determined as 79.6%.

With `Cc1ccc(Oc2cc(C(=O)NC3CCCCNC3=O)nc3ccsc23)cn1` (centres unmarked) [Compound 36, 7-[(6-methyl-3-pyridyl)oxy]-N-(2-oxoazepan-3-yl)thieno[3,2-b]pyridine-5-carboxamide], under setting [2], the pEC50 was less than 5.00. With `Cn1ccc(-c2ccc(Cc3cc(C(=O)NCC4CCN4)nc4ccsc34)cn2)n1` (centres unmarked) [Compound 421, N-(azetidin-2-ylmethyl)-7-[[6-(1-methylpyrazol-3-yl)-3-pyridyl]methyl]thieno[3,2-b]pyridine-5-carboxamide], under setting [1], the pEC50 is 6.37. In addition, the Emax (Table 2, human M1) was determined as 66.9%.

With `O=C(N[C@H]1CCOC1)c1cc(Cc2ccc(-c3cncs3)cc2)c2sccc2n1` [Compound 399, N-[(3S)-tetrahydrofuran-3-yl]-7-[(4-thiazol-5-ylphenyl)methyl]thieno[3,2-b]pyridine-5-carboxamide], the pEC50 under setting [1] was 5.37. Also, the Emax (Table 2, human M1) is 45.1%. For the compound `Cn1ccc2nc(C(=O)NC3CCOCC3)cc(Cc3ccc(-c4nccs4)cc3)c21` [Compound 480, 1-methyl-N-tetrahydropyran-4-yl-7-[(4-thiazol-2-ylphenyl)methyl]pyrrolo[3,2-b]pyridine-5-carboxamide], under setting [1], the pEC50 was 6.44. The Emax (Table 2, human M1) came to 57.2%. In the same order, the values of `Cc1nc(-c2ccc(Cc3cc(C(=O)NC4CCN5CCCC45)nc4ccsc34)cc2)cs1` (centres unmarked) [Compound 197, N-(hexahydro-1H-pyrrolizin-1-yl)-7-[[4-(2-methylthiazol-4-yl)phenyl]methyl]thieno[3,2-b]pyridine-5-carboxamide] are 5.86 and 80.8%.

Regarding `COCCNC(=O)c1cc(Oc2ccc(C)nc2)c2sccc2n1` [Compound 33, N-(2-methoxyethyl)-7-[(6-methyl-3-pyridyl)oxy]thieno[3,2-b]pyridine-5-carboxamide], under setting [2], the pEC50 was less than 5.00. Regarding `Cn1ncc2nc(C(=O)N[C@H]3CCC[C@@H]3O)cc(Cc3ccc(-n4cccn4)cc3)c21` [Compound 497, N-[(1S,2S)-2-hydroxycyelopentyl]-1-methyl-7-[(4-pyrazol-1-ylphenyl)methyl]pyrazolo-[4,3-b]pyridine-5-carboxamide], the pEC50 under setting [1] was 5.93. Moreover, the Emax (Table 2, human M1) was 68.1%. `O=C(N[C@H]1CCC[C@@H]1O)c1cc(Cc2ccc(-c3cncs3)cc2)c2sccc2n1` [Compound 397, N-[(1S,2S)-2-hydroxycyclopentyl]-7-[(4-thiazol-5-ylphenyl)methyl]thieno[3,2-b]pyridine-5-carboxamide]: the pEC50 under setting [1] was 6.95. Also, the Emax (Table 2, human M1) turned out to be 59.6%. In the same order, the values of `CO[C@@H]1CCCC[C@H]1NC(=O)c1cc(Cc2ccc(-c3coc(C)n3)cc2)c2sccc2n1` [Compound 169, N-[(1R,2R)-2-methoxycyclohexyl]-7-[[4-(2-methyloxazol-4-yl)phenyl]methyl]thieno[3,2-b]pyridine-5-carboxamide] are 5.87 and 84.1%.

`CC1CC(NC(=O)c2cc(Cc3ccc(-c4nccs4)cc3)c3sccc3n2)CC(C)O1` (centres unmarked) [Compound 386, N-(2,6-dimethyltetrahydropyran-4-yl)-7-[(4-thiazol-2-ylphenyl)methyl]thieno[3,2-b]pyridine-5-carboxamide]: the pEC50 under setting [1] was 5.72. Also, the Emax (Table 2, human M1) was 66.1%. Consider `Cc1nc(-c2ccc(Cc3cc(C(=O)N(C)C4CCOCC4)nc4ccsc34)cc2)co1` [Compound 165, N-methyl-7-[[4-(2-methyloxazol-4-yl)phenyl]methyl]-N-tetrahydropyran-4-yl-thieno[3,2-b]pyridine-5-carboxamide], for which, under setting [1], the pEC50 was less than 5.00. Also, where the note is “Table 2, human M1”, the Emax turned out to be 70.8%.

For `C[C@H]1COCC[C@@H]1NC(=O)c1cc(Cc2ccc(-c3cncs3)cc2)c2sccc2n1` [Compound 393, N-[(3R,4S)-3-methyltetrahydropyran-4-yl]-7-[(4-thiazol-5-ylphenyl)methyl]thieno[3,2-b]pyridine-5-carboxamide], the pEC50 under setting [1] was 5.87. For the same compound, under “Table 2, human M1”, the Emax worked out at 68.7%. Take `Cc1ncc(Cc2cc(C(=O)NC3CCCCC3)nc3ccsc23)s1` [Compound 134, N-cyclohexyl-7-[(2-methylthiazol-5-yl)methyl]thieno[3,2-b]pyridine-5-carboxamide]: the pEC50 under setting [1] is 5.49. Moreover, the Emax (Table 2, human M1) came to 37.6%. `Cc1ccc(Oc2cc(C(=O)N[C@H]3CCCCC[C@@H]3O)nc3ccsc23)cn1` [Compound 25, N-[(1S,2S)-2-hydroxycycloheptyl]-7-[(6-methyl-3-pyridyl)oxy]thieno[3,2-b]pyridine-5-carboxamide]: the negative logarithm of the EC50 (pEC50) under setting [2] is 6.12.

As for `Cc1nc(-c2ccc(Cc3cc(C(=O)NC4CC5(COC5)C4)nc4ccsc34)cc2)co1` [Compound 158, 7-[[4-(2-methyloxazol-4-yl)phenyl]methyl]-N-(2-oxaspiro[3.3]heptan-6-yl)thieno[3,2-b]pyridine-5-carboxamide], under setting [1], the negative-log EC50 (pEC50) is 6.46. The Emax (Table 2, human M1) was determined as 89.7%. On to `O=C(NC12CC(C1)C2)c1cc(Cc2ccc(-c3cscn3)cc2)c2sccc2n1` [Compound 201, N-(3-bicyclo[1.1.1]pentanyl)-7-[(4-thiazol-4-ylphenyl)methyl]thieno[3,2-b]pyridine-5-carboxamide], for which the pEC50 under setting [1] is less than 5.00. The Emax (Table 2, human M1) stood at 38.5%. As for `Cn1cc(-c2cc(F)c(Cc3cc(C(=O)N[C@H]4CCC[C@@H]4O)nc4ccsc34)c(F)c2)cn1` [Compound 58, 7-[[2,6-difluoro-4-(1-methylpyrazol-4-yl)phenyl]methyl]-N-[(1S,2S)-2-hydroxycyclopentyl]thieno[3,2-b]pyridine-5-carboxamide], the pEC50 under setting [1] is 5.22. In addition, the Emax (Table 2, human M1) came out at 50.2%. In the same order, the values of `Cc1csc2c(Cc3ccc(-c4ccn(C)n4)cc3)cc(C(=O)N[C@@H]3CCOC3)nc12` [Compound 305, 3-methyl-7-[[4-(1-methylpyrazol-3-yl)phenyl]methyl]-N-[(3R)-tetrahydrofuran-3-yl]thieno[3,2-b]pyridine-5-carboxamide] are 5.55 and 76.3%. As to `O=C(NC1C2CC3C[C@H]1CC(O)(C3)C2)c1cc(Cc2ccc(C(F)(F)F)nc2)c2sccc2n1` (stereo partly drawn) [Compound 96, N-[(1S)-5-hydroxy-2-adamantyl]-7-[[6-(trifluoromethyl)-3-pyridyl]methyl]thieno[3,2-b]pyridine-5-carboxamide], the pEC50 under setting [1] was less than 5.00. Also, where the note is “Table 2, human M1”, the Emax turned out to be 43.6%. For the compound `Cc1cc2nc(C(=O)N[C@H]3CCCC[C@@H]3O)cc(Cc3ccc(-n4cccn4)cc3)c2s1` [Compound 237, N-[(1S,2S)-2-hydroxycyclohexyl]-2-methyl-7-[(4-pyrazol-1-ylphenyl)methyl]thieno[3,2-b]pyridine-5-carboxamide], under setting [1], the pEC50 was 6.34. In addition, the Emax (Table 2, human M1) is 85.2%. Take `Cc1ccc(Cc2cc(C(=O)NC3CCCNC3=O)nc3c(C)csc23)cn1` (centres unmarked) [Compound 110, 3-methyl-7-[(6-methyl-3-pyridyl)methyl]-N-(2-oxo-3-piperidyl)thieno[3,2-b]pyridine-5-carboxamide]: the pEC50 under setting [1] was 5.30. In addition, the Emax (Table 2, human M1) worked out at 71%.

Take `Cn1cc(-c2ccc(Cc3cc(C(=O)N[C@@H]4CCC[C@H]4O)nc4ccsc34)cc2)nn1` [Compound 149, N-[(1R,2R)-2-hydroxycyclopentyl]-7-[[4-(1-methyltriazol-4-yl)phenyl]methyl]thieno[3,2-b]pyridine-5-carboxamide]: the pEC50 under setting [1] is 8.01. Besides, the Emax (Table 2, human M1) came out at 85%. In the same order, the values of `Cc1nn(C)c(C)c1-c1ccc(Cc2cc(C(=O)N[C@H]3CCC[C@@H]3O)nc3ccsc23)cc1` [Compound 242] are less than 5.00 and 17.8%.

Consider `Cc1csc2c(Cc3ccc(-c4ccn(C)n4)cc3)cc(C(=O)N[C@H]3CCOC3)nc12` [Compound 306], for which, under setting [1], the pEC50 was 5.53. For the setting “Table 2, human M1”, the Emax is 79.3%. As to `O=C(N[C@@H]1CCCC[C@H]1O)c1cc(Cc2ccc(-n3cccn3)cc2)c2sccc2n1` [Compound 73, N-[(1R,2R)-2-hydroxycyclohexyl]-7-[(4-pyrazol-1-ylphenyl)methyl]thieno[3,2-b]pyridine-5-carboxamide], the pEC50 under setting [1] is 7.30. The Emax (Table 2, human M1) stood at 87.9%.

As for `Cc1nc(-c2ccc(Cc3cc(C(=O)N[C@H]4CCOC[C@@H]4O)nc4c(C)csc34)cc2)co1` [Compound 330, N-[(3R,4S)-3-hydroxytetrahydropyran-4-yl]-3-methyl-7-[[4-(2-methyloxazol-4-yl)phenyl]methyl]thieno[3,2-b]pyridine-5-carboxamide], the pEC50 under setting [1] was 7.64. Besides, the Emax (Table 2, human M1) amounted to 62.8%.
